Source: ChEMBL document CHEMBL2331098, “Unprecedented polyketides from a marine sponge-associated Stachylidium sp” (J Nat Prod, 2013)
Calls of active or inactive are those of the source. The rule behind the calls is not given here.

What was measured:
[1] = test system: Mycobacterium tuberculosis; assay: Antimicrobial activity against antibiotic-resistant Mycobacterium tuberculosis MTB72 at 50 ug/ml disc level; format: functional, organism-based
[2] = test system: Mycobacterium tuberculosis; assay: Antimicrobial activity against antibiotic-resistant Mycobacterium tuberculosis R46 at 50 ug/ml disc level; format: functional, organism-based

COCc1c(C(C)O)cc(O)c(C)c1OC (configuration not stated)
Activity [1]: inactive
Activity [2]: inactive
